Reference: US12539292B2, “BRM targeting compounds and associated methods of use” (Arvinas Operations, Inc., priority 2018, dated 2026)
Where two headings read alike, the source gives them in different places.

Target: T1, BRM (Homo sapiens, UniProt P51531)
T1 construct: In-Cell Western Screen of BRM Degradation in SW1573 Cells; endogenous in cells; host or cells: SW1573
Test: In-cell Western screen of BRM degradation in SW1573 cells (Dmax and DC50)
Assay type: cell-based
Settings: for DC50: read-out: BRM DC50; for Dmax: SW1573, % degraded, when tested at the top concentration of between 0.3 and 10 μM, read-out: BRM Dmax (%)
How it was run: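 BRM levels were read by LI-COR in-cell Western after two-channel (800/680 nm) immunostaining of fixed, Triton-permeabilised SW1573 cells.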

T1 sequence (P51531 whole entry): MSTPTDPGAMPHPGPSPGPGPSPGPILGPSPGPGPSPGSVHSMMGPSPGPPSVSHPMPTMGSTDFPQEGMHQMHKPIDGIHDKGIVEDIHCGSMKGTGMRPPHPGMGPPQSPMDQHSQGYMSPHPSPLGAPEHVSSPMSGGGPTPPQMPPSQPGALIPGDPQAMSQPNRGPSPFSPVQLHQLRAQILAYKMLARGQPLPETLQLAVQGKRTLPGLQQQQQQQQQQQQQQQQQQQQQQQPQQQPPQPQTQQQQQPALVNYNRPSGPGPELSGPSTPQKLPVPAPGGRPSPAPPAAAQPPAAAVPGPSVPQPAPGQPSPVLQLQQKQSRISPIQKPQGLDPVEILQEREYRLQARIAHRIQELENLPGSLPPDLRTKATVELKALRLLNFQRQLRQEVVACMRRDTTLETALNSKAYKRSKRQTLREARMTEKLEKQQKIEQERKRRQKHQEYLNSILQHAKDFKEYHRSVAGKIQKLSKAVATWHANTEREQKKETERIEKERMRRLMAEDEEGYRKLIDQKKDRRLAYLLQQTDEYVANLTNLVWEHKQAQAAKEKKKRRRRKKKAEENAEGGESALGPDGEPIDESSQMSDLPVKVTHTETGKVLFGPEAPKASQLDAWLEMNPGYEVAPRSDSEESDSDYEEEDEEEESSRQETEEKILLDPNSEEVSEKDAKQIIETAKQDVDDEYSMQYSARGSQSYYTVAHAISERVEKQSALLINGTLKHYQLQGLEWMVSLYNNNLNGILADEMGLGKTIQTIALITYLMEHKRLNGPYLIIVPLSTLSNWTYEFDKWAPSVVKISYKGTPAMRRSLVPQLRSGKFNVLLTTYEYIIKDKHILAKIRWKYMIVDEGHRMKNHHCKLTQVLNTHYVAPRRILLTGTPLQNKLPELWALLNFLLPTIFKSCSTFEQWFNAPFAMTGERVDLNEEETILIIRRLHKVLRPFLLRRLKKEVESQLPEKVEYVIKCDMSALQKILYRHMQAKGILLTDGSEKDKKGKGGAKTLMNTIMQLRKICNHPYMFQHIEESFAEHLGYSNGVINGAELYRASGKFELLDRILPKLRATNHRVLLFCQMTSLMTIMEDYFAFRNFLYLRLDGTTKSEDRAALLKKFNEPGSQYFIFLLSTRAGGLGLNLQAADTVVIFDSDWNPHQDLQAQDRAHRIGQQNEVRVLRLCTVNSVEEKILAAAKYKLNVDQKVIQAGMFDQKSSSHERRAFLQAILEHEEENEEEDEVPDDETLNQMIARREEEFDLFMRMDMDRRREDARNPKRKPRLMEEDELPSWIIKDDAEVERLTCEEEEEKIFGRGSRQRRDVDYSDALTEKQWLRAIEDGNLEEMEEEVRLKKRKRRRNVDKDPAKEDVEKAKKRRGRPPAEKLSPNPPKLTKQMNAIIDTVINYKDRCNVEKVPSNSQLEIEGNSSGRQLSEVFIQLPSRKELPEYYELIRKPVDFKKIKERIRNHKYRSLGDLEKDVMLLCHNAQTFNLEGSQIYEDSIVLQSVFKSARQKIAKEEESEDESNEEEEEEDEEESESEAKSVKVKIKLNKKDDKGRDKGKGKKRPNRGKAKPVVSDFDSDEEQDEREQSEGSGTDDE

SMILES	DC50 (target protein degradation)	Dmax	DC50 (BRM degradation)
Cc1ncsc1-c1ccc([C@H](C)NC(=O)[C@@H]2C[C@@H](O)CN2C(=O)[C@H](c2cc(OC[C@@H]3C[C@H]3c3ccc(O[C@H]4C[C@H](Oc5cc(N6C7CCC6CN(c6cc(-c8ccccc8O)nnc6N)C7)ccn5)C4)cn3)no2)C(C)C)cn1 [compound 479, (2S,4R)-1-((2S)-2-(3-(((1R,2R)-2-(5-((1r,3R)-3-((4-(3-(3-amino-6-(2-hydroxyphenyl)pyridazin-4-yl)-3,8-diazabicyclo[3.2.1]octan-8-yl)pyridin-2-yl)oxy)cyclobutoxy)pyridin-2-yl)cyclopropyl)methoxy)isoxazol-5-yl)-3-methylbutanoyl)-4-hydroxy-N-((S)-1-(6-(4-methylthiazol-5-yl)pyridin-3-yl)ethyl)pyrrolidine-2-carboxamide]	> 30 nM		
Cc1ncsc1-c1ccc([C@H](C)NC(=O)[C@@H]2C[C@@H](O)CN2C(=O)[C@@H](c2cc(OC[C@@H]3C[C@H]3c3ccc(O[C@H]4C[C@H](Oc5cc(N6C7CCC6CN(c6cc(-c8ccccc8O)nnc6N)C7)ccn5)C4)cn3)no2)C(C)C)cn1 [compound 480, (2S,4R)-1-((2R)-2-(3-(((1R,2R)-2-(5-((1r,3R)-3-((4-(3-(3-amino-6-(2-hydroxyphenyl)pyridazin-4-yl)-3,8-diazabicyclo[3.2.1]octan-8-yl)pyridin-2-yl)oxy)cyclobutoxy)pyridin-2-yl)cyclopropyl)methoxy)isoxazol-5-yl)-3-methylbutanoyl)-4-hydroxy-N-((S)-1-(6-(4-methylthiazol-5-yl)pyridin-3-yl)ethyl)pyrrolidine-2-carboxamide]	< 2.5 nM	> 75%	
Cc1cc([C@@H](C(=O)N2C[C@H](O)C[C@H]2C(=O)N[C@@H](C)c2ccc(-c3scnc3C)cc2)[C@@H](C)CO[C@H]2C[C@@H](Oc3cc(N4C5CCC4CN(c4cc(-c6ccccc6O)nnc4N)C5)ccn3)C2)on1 [compound 481, (2S,4R)-1-((2S,3R)-4-((1s,3S)-3-((4-(3-(3-amino-6-(2-hydroxyphenyl)pyridazin-4-yl)-3,8-diazabicyclo[3.2.1]octan-8-yl)pyridin-2-yl)oxy)cyclobutoxy)-3-methyl-2-(3-methylisoxazol-5-yl)butanoyl)-4-hydroxy-N-((S)-1-(4-(4-methylthiazol-5-yl)phenyl)ethyl)pyrrolidine-2-carboxamide]	< 2.5 nM	> 75%	
Cc1cc([C@H](C(=O)N2C[C@H](O)C[C@H]2C(=O)N[C@@H](C)c2ccc(-c3scnc3C)cc2)[C@@H](C)CO[C@H]2C[C@@H](Oc3cc(N4C5CCC4CN(c4cc(-c6ccccc6O)nnc4N)C5)ccn3)C2)on1 [compound 482, (2S,4R)-1-((2R,3R)-4-((1s,3S)-3-((4-(3-(3-amino-6-(2-hydroxyphenyl)pyridazin-4-yl)-3,8-diazabicyclo[3.2.1]octan-8-yl)pyridin-2-yl)oxy)cyclobutoxy)-3-methyl-2-(3-methylisoxazol-5-yl)butanoyl)-4-hydroxy-N-((S)-1-(4-(4-methylthiazol-5-yl)phenyl)ethyl)pyrrolidine-2-carboxamide]	> 30 nM		
Cc1ncsc1-c1ccc([C@H](C)NC(=O)[C@@H]2C[C@@H](O)CN2C(=O)[C@H](c2cc(OCC(F)(F)CN3CCC(O[C@H]4C[C@H](Oc5cc(N6C7CCC6CN(c6cc(-c8ccccc8O)nnc6N)C7)ccn5)C4)CC3)no2)C(C)C)cc1 [compound 483, (2S,4R)-1-((2S)-2-(3-(3-(4-((1r,3S)-3-((4-(3-(3-amino-6-(2-hydroxyphenyl)pyridazin-4-yl)-3,8-diazabicyclo[3.2.1]octan-8-yl)pyridin-2-yl)oxy)cyclobutoxy)piperidin-1-yl)-2,2-difluoropropoxy)isoxazol-5-yl)-3-methylbutanoyl)-4-hydroxy-N-((S)-1-(4-(4-methylthiazol-5-yl)phenyl)ethyl)pyrrolidine-2-carboxamide]	> 30 nM		
Cc1ncsc1-c1ccc([C@H](C)NC(=O)[C@@H]2C[C@@H](O)CN2C(=O)[C@@H](c2cc(OCC(F)(F)CN3CCC(O[C@H]4C[C@H](Oc5cc(N6C7CCC6CN(c6cc(-c8ccccc8O)nnc6N)C7)ccn5)C4)CC3)no2)C(C)C)cc1 [compound 484, (2S,4R)-1-((2R)-2-(3-(3-(4-((1r,3R)-3-((4-(3-(3-amino-6-(2-hydroxyphenyl)pyridazin-4-yl)-3,8-diazabicyclo[3.2.1]octan-8-yl)pyridin-2-yl)oxy)cyclobutoxy)piperidin-1-yl)-2,2-difluoropropoxy)isoxazol-5-yl)-3-methylbutanoyl)-4-hydroxy-N-((S)-1-(4-(4-methylthiazol-5-yl)phenyl)ethyl)pyrrolidine-2-carboxamide]	< 2.5 nM	> 75%	
Cc1ncsc1-c1ccc([C@H](C)NC(=O)[C@@H]2C[C@@H](O)CN2C(=O)[C@H](c2cc(OCC[C@H]3CC[C@H](O[C@H]4C[C@H](Oc5cc(N6C7CCC6CN(c6cc(-c8ccccc8O)nnc6N)C7)ccn5)C4)CC3)no2)C(C)C)cn1 [compound 485, (2S,4R)-1-((2S)-2-(3-(2-((1R,4S)-4-((1r,3S)-3-((4-(3-(3-amino-6-(2-hydroxyphenyl)pyridazin-4-yl)-3,8-diazabicyclo[3.2.1]octan-8-yl)pyridin-2-yl)oxy)cyclobutoxy)cyclohexyl)ethoxy)isoxazol-5-yl)-3-methylbutanoyl)-4-hydroxy-N-((S)-1-(6-(4-methylthiazol-5-yl)pyridin-3-yl)ethyl)pyrrolidine-2-carboxamide]	> 30 nM		
Cc1ncsc1-c1ccc([C@H](C)NC(=O)[C@@H]2C[C@@H](O)CN2C(=O)[C@@H](c2cc(OCC[C@H]3CC[C@H](O[C@H]4C[C@H](Oc5cc(N6C7CCC6CN(c6cc(-c8ccccc8O)nnc6N)C7)ccn5)C4)CC3)no2)C(C)C)cn1 [compound 486, (2S,4R)-1-((2R)-2-(3-(2-((1R,4R)-4-((1r,3R)-3-((4-(3-(3-amino-6-(2-hydroxyphenyl)pyridazin-4-yl)-3,8-diazabicyclo[3.2.1]octan-8-yl)pyridin-2-yl)oxy)cyclobutoxy)cyclohexyl)ethoxy)isoxazol-5-yl)-3-methylbutanoyl)-4-hydroxy-N-((S)-1-(6-(4-methylthiazol-5-yl)pyridin-3-yl)ethyl)pyrrolidine-2-carboxamide]	< 2.5 nM	> 75%	
Cc1ncsc1-c1ccc([C@H](C)NC(=O)[C@@H]2C[C@@H](O)CN2C(=O)[C@H](c2cc(OCC[C@H]3CC[C@H](O[C@H]4C[C@H](Oc5cc(N6C7CCC6CN(c6cc(-c8ccccc8O)nnc6N)C7)ccn5)C4)CC3)no2)C(C)C)cc1 [compound 487, (2S,4R)-1-((2S)-2-(3-(2-((1R,4S)-4-((1r,3S)-3-((4-(3-(3-amino-6-(2-hydroxyphenyl)pyridazin-4-yl)-3,8-diazabicyclo[3.2.1]octan-8-yl)pyridin-2-yl)oxy)cyclobutoxy)cyclohexyl)ethoxy)isoxazol-5-yl)-3-methylbutanoyl)-4-hydroxy-N-((S)-1-(4-(4-methylthiazol-5-yl)phenyl)ethyl)pyrrolidine-2-carboxamide]	> 30 nM		
Cc1ncsc1-c1ccc([C@H](C)NC(=O)[C@@H]2C[C@@H](O)CN2C(=O)[C@@H](c2cc(OCC[C@H]3CC[C@H](O[C@H]4C[C@H](Oc5cc(N6C7CCC6CN(c6cc(-c8ccccc8O)nnc6N)C7)ccn5)C4)CC3)no2)C(C)C)cc1 [compound 488, (2S,4R)-1-((2R)-2-(3-(2-((1R,4R)-4-((1r,3R)-3-((4-(3-(3-amino-6-(2-hydroxyphenyl)pyridazin-4-yl)-3,8-diazabicyclo[3.2.1]octan-8-yl)pyridin-2-yl)oxy)cyclobutoxy)cyclohexyl)ethoxy)isoxazol-5-yl)-3-methylbutanoyl)-4-hydroxy-N-((S)-1-(4-(4-methylthiazol-5-yl)phenyl)ethyl)pyrrolidine-2-carboxamide]	< 2.5 nM	> 75%	
Cc1ncsc1-c1ccc([C@H](C)NC(=O)[C@@H]2C[C@@H](O)CN2C(=O)[C@@H](c2cc(OCCN3CCC(O[C@H]4C[C@H](Oc5cc(N6C7CCC6CN(c6ccn8cc(-c9ccccc9O)nc8n6)C7)ccn5)C4)CC3)no2)C(C)C)cc1 [compound 489, (2S,4R)-4-hydroxy-1-((2R)-2-(3-(2-(4-((1r,3R)-3-((4-(3-(2-(2-hydroxyphenyl)imidazo[1,2-a]pyrimidin-7-yl)-3,8-diazabicyclo[3.2.1]octan-8-yl)pyridin-2-yl)oxy)cyclobutoxy)piperidin-1-yl)ethoxy)isoxazol-5-yl)-3-methylbutanoyl)-N-((S)-1-(4-(4-methylthiazol-5-yl)phenyl)ethyl)pyrrolidine-2-carboxamide]	> 30 nM		
Cc1ncsc1-c1cnc([C@H](C)NC(=O)[C@@H]2C[C@@H](O)CN2C(=O)[C@H](c2cc(OCCN3CCC(O[C@H]4C[C@H](Oc5cc(N6C7CCC6CN(c6cc(-c8ccccc8O)nnc6N)C7)ccn5)C4)CC3)no2)C(C)C)cn1 [compound 490, (2S,4R)-1-((2S)-2-(3-(2-(4-((1r,3S)-3-((4-(3-(3-amino-6-(2-hydroxyphenyl)pyridazin-4-yl)-3,8-diazabicyclo[3.2.1]octan-8-yl)pyridin-2-yl)oxy)cyclobutoxy)piperidin-1-yl)ethoxy)isoxazol-5-yl)-3-methylbutanoyl)-4-hydroxy-N-((S)-1-(5-(4-methylthiazol-5-yl)pyrazin-2-yl)ethyl)pyrrolidine-2-carboxamide]	> 30 nM		
Cc1ncsc1-c1cnc([C@H](C)NC(=O)[C@@H]2C[C@@H](O)CN2C(=O)[C@@H](c2cc(OCCN3CCC(O[C@H]4C[C@H](Oc5cc(N6C7CCC6CN(c6cc(-c8ccccc8O)nnc6N)C7)ccn5)C4)CC3)no2)C(C)C)cn1 [compound 491, (2S,4R)-1-((2R)-2-(3-(2-(4-((1r,3R)-3-((4-(3-(3-amino-6-(2-hydroxyphenyl)pyridazin-4-yl)-3,8-diazabicyclo[3.2.1]octan-8-yl)pyridin-2-yl)oxy)cyclobutoxy)piperidin-1-yl)ethoxy)isoxazol-5-yl)-3-methylbutanoyl)-4-hydroxy-N-((S)-1-(5-(4-methylthiazol-5-yl)pyrazin-2-yl)ethyl)pyrrolidine-2-carboxamide]		> 75%	< 2.5 nM
